Data on 28 compounds can be found in patent US11535621B2, “Heterobicyclic amides as inhibitors of CD38” (Ribon Therapeutics, Inc., priority 2019, dated 2022).

Chain of Human CD38 (P28907 whole entry): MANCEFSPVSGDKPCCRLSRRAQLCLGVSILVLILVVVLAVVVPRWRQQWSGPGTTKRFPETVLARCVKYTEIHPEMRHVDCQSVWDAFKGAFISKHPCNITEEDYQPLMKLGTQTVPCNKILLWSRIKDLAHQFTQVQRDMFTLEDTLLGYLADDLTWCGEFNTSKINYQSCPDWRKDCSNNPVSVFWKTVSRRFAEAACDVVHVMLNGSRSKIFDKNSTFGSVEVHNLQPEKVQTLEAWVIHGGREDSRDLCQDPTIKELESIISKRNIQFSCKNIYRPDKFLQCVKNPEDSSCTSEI

The assay concerns the target Human CD38 (Homo sapiens (Human), UniProt P28907). Description: CD38 enzyme assay. As to conditions: 2 nM CD38, NAD+ substrate, absorbance at 405 nm. Format: biochemical. An excerpt: [formula] where SUBcmpd is the subtracted value for the individual compound treated well, SUBmin is the average of the subtracted values of the 4-(((1r,4r)-4-(2-methoxyethoxy)cyclohexyl)amino)-1-methyl-6-(thiazol-5-yl)quinolin-2(1H)-one positive control wells and SUBmax is the average of the subtracted values of the DMSO negative control wells.
The % inhibition values were plotted as a function of compound concentration and the following 4-parameter fit was applied to derive the IC50 values:
[formula] where top and bottom are normally allowed to float, but may be fixed at 100 or 0 respectively in a 3-parameter fit. The Hill Coefficient is normally allowed to float but may also be fixed at 1 in a 3-parameter fit. Y is the % inhibition and X is the compound concentration.
Consider `COCCO[C@H]1C[C@H](NC(=O)c2nc(-n3ccnc3)nc3cc[nH]c23)C1` [Example 65, 2-(1H-Imidazol-1-yl)-N-((1r,3r)-3-(2-methoxyethoxy)cyclobutyl)-5H-pyrrolo[3,2-d]pyrimidine-4-carboxamide], for which the IC50 (commonly the concentration at which inhibition is half-maximal) was 10 to 100 nM.

In the case of `CO[C@H]1C[C@H](NC(=O)c2nc(-n3ccnc3)nc3cc[nH]c23)C1` [Example 66, 2-(1H-Imidazol-1-yl)-N-((1r,3r)-3-methoxycyclobutyl)-5H-pyrrolo[3,2-d]pyrimidine-4-carboxamide], the IC50 is 10 to 100 nM.

The compound `O=C(NC1CCN(CCC(F)(F)F)C1)c1nc(-n2ccnc2)nc2cc[nH]c12` (stereo not shown) [Example 67, 2-(1H-Imidazol-1-yl)-N-(1-(3,3,3-trifluoropropyl)pyrrolidin-3-yl)-5H-pyrrolo[3,2-d]pyrimidine-4-carboxamide] gave an IC50 of 10 to 100 nM. On to `O=C(NC1CCN(CC(F)(F)F)C1)c1nc(-n2ccnc2)nc2cc[nH]c12` (stereo not shown) [Example 68, 2-(1H-Imidazol-1-yl)-N-(1-(2,2,2-trifluoroethyl)pyrrolidin-3-yl)-5H-pyrrolo[3,2-d]pyrimidine-4-carboxamide], for which the IC50 was in the range of 10 to 100 nM. As for `COCCO[C@H]1CC[C@@H](NC(=O)c2nc(-n3ccnc3)nc3cc[nH]c23)CC1` [Example 69, 2-(1H-Imidazol-1-yl)-N-((1s,4s)-4-(2-methoxyethoxy)cyclohexyl)-5H-pyrrolo[3,2-d]pyrimidine-4-carboxamide], the figure is 10 to 100 nM; as for `CNC(=O)c1nc(-n2ccnc2)nc2cc[nH]c12` [Example 70, 2-(1H-Imidazol-1-yl)-N-methyl-5H-pyrrolo[3,2-d]pyrimidine-4-carboxamide], 100 to 1000 nM.

`CNCCO[C@H]1CC[C@H](NC(=O)c2nc(-n3ccnc3)nc3cc[nH]c23)CC1` [Example 71, 2-(1H-Imidazol-1-yl)-N-((1r,4r)-4-(2-(methylamino)ethoxy)cyclohexyl)-5H-pyrrolo[3,2-d]pyrimidine-4-carboxamide] gave an IC50 of 10 to 100 nM. As for `CN(C)CCO[C@H]1CC[C@H](NC(=O)c2nc(-n3ccnc3)nc3cc[nH]c23)CC1` [Example 72, N-((1r,4r)-4-(2-(Dimethylamino)ethoxy)cyclohexyl)-2-(1H-imidazol-1-yl)-5H-pyrrolo[3,2-d]pyrimidine-4-carboxamide], the figure is 10 to 100 nM; as for `O=C(NC1CCNC1)c1nc(-n2ccnc2)nc2cc[nH]c12` (stereo not shown) [Example 73, 2-(1H-Imidazol-1-yl)-N-(pyrrolidin-3-yl)-5H-pyrrolo[3,2-d]pyrimidine-4-carboxamide], 100 to 1000 nM; as for `CN1CCC(NC(=O)c2nc(-n3ccnc3)nc3cc[nH]c23)C1` (stereo not shown) [Example 74, 2-(1H-Imidazol-1-yl)-N-(1-methylpyrrolidin-3-yl)-5H-pyrrolo[3,2-d]pyrimidine-4-carboxamide], 100 to 1000 nM. `CS(=O)(=O)N1CCC(NC(=O)c2nc(-n3ccnc3)nc3cc[nH]c23)CC1` [Example 75, 2-(1H-Imidazol-1-yl)-N-(1-(methylsulfonyl)piperidin-4-yl)-5H-pyrrolo[3,2-d]pyrimidine-4-carboxamide] had a 50% inhibitory concentration (IC50) of under 10 nM. As to `O=C(NC1CCN(C2COC2)CC1)c1nc(-n2ccnc2)nc2cc[nH]c12` [Example 76, 2-(1H-Imidazol-1-yl)-N-(1-(oxetan-3-yl)piperidin-4-yl)-5H-pyrrolo[3,2-d]pyrimidine-4-carboxamide], the IC50 fell in the range of 10 to 100 nM. In the case of `O=C(NC1CCC1)c1nc(-n2ccnc2)nc2cc[nH]c12` [Example 77, N-Cyclobutyl-2-(1H-imidazol-1-yl)-5H-pyrrolo[3,2-d]pyrimidine-4-carboxamide], the IC50 was under 10 nM.

Consider `O=C(NCC1CCCCC1)c1nc(-n2ccnc2)nc2cc[nH]c12` [Example 78, N-(Cyclohexylmethyl)-2-(1H-imidazol-1-yl)-5H-pyrrolo[3,2-d]pyrimidine-4-carboxamide], for which the IC50 was in the range of 10 to 100 nM. As for `O=C(NCc1ccccc1)c1nc(-n2ccnc2)nc2cc[nH]c12` [Example 79, N-Benzyl-2-(1H-imidazol-1-yl)-5H-pyrrolo[3,2-d]pyrimidine-4-carboxamide], the figure is 100 to 1000 nM. Next, `CNC(=O)CO[C@H]1CC[C@H](NC(=O)c2nc(-n3ccnc3)nc3cc[nH]c23)CC1` [Example 80, 2-(1H-Imidazol-1-yl)-N-((1r,4r)-4-(2-(methylamino)-2-oxoethoxy)cyclohexyl)-5H-pyrrolo[3,2-d]pyrimidine-4-carboxamide]: 10 to 100 nM; `O=C(Nc1ccccn1)c1nc(-n2ccnc2)nc2cc[nH]c12` [Example 81, 2-(1H-Imidazol-1-yl)-N-(pyridin-2-yl)-5H-pyrrolo[3,2-d]pyrimidine-4-carboxamide]: under 10 nM; `O=C(Nc1ccccc1)c1nc(-n2ccnc2)nc2cc[nH]c12` [Example 82, 2-(1H-Imidazol-1-yl)-N-phenyl-5H-pyrrolo[3,2-d]pyrimidine-4-carboxamide]: under 10 nM. Next, `O=C(Nc1cccnc1)c1nc(-n2ccnc2)nc2cc[nH]c12` [Example 83, 2-(1H-Imidazol-1-yl)-N-(pyridin-3-yl)-5H-pyrrolo[3,2-d]pyrimidine-4-carboxamide]: under 10 nM; `COc1ccc(NC(=O)c2nc(-n3ccnc3)nc3cc[nH]c23)nc1` [Example 84, 2-(1H-Imidazol-1-yl)-N-(5-methoxypyridin-2-yl)-5H-pyrrolo[3,2-d]pyrimidine-4-carboxamide]: under 10 nM.

`COc1ccc(NC(=O)c2nc(-n3ccnc3)nc3cc[nH]c23)cn1` [Example 85, 2-(1H-Imidazol-1-yl)-N-(6-methoxypyridin-3-yl)-5H-pyrrolo[3,2-d]pyrimidine-4-carboxamide]: the IC50 was under 10 nM. As for `O=C(Nc1cc[nH]n1)c1nc(-n2ccnc2)nc2cc[nH]c12` [Example 86, 2-(1H-Imidazol-1-yl)-N-(1H-pyrazol-3-yl)-5H-pyrrolo[3,2-d]pyrimidine-4-carboxamide], the figure is under 10 nM; as for `O=C(Nc1ccc(Cl)cc1)c1nc(-n2ccnc2)nc2cc[nH]c12` [Example 87, N-(4-Chlorophenyl)-2-(1H-imidazol-1-yl)-5H-pyrrolo[3,2-d]pyrimidine-4-carboxamide], under 10 nM; as for `O=C(Nc1cccc(Cl)c1)c1nc(-n2ccnc2)nc2cc[nH]c12` [Example 88, N-(3-Chlorophenyl)-2-(1H-imidazol-1-yl)-5H-pyrrolo[3,2-d]pyrimidine-4-carboxamide], under 10 nM. Next, `O=C(Nc1ccccc1Cl)c1nc(-n2ccnc2)nc2cc[nH]c12` [Example 89, N-(2-Chlorophenyl)-2-(1H-imidazol-1-yl)-5H-pyrrolo[3,2-d]pyrimidine-4-carboxamide]: under 10 nM; `O=C(NC1CCCC1)c1nc(-n2ccnc2)nc2cc[nH]c12` [Example 90, N-Cyclopentyl-2-(1H-imidazol-1-yl)-5H-pyrrolo[3,2-d]pyrimidine-4-carboxamide]: under 10 nM; `O=C(NC1CCOC1)c1nc(-n2ccnc2)nc2cc[nH]c12` (stereo not shown) [Example 91, 2-(1H-Imidazol-1-yl)-N-(tetrahydrofuran-3-yl)-5H-pyrrolo[3,2-d]pyrimidine-4-carboxamide]: under 10 nM.

`O=C(NC1CCCCCC1)c1nc(-n2ccnc2)nc2cc[nH]c12` [Example 92, N-Cycloheptyl-2-(1H-imidazol-1-yl)-5H-pyrrolo[3,2-d]pyrimidine-4-carboxamide] showed an IC50 of under 10 nM.
